Changes are numbered by the printed parent chain. Values joined by “and” are separate entries in the source; they are usually repeats but may differ in a detail not shown here. Identical values can stand only once. Like-named read-outs stand apart in the source and are kept apart here.
Columns and labels:
hTA1 T194A = biological target: T1, hTA1 T194A (Homo sapiens, UniProt Q96RJ0, T194A); assay: GloSensor cAMP accumulation assay, T194A mutant
T1 sequence (Q96RJ0 1-339 T194A): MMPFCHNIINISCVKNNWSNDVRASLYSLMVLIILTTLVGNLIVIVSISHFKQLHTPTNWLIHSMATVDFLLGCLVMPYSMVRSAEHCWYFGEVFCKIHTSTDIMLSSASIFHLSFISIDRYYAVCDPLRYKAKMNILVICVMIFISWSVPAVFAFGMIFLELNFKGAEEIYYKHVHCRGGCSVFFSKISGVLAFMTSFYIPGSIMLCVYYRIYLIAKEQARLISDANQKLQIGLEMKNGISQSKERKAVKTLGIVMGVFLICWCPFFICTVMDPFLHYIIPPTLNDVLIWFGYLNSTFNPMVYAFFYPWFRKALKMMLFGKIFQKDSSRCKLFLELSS

hTA1 C13S = biological target: T2, hTA1 C13S (Homo sapiens, UniProt Q96RJ0, C13S); assay: GloSensor cAMP accumulation assay, C13S mutant; format: cell-based; settings: for C13S - Normalized Luminescence Counts (N=2): log[Compound], single wells
T2 construct: expressed in transfected cells; host or cells: HEK293T
T2 sequence (Q96RJ0 1-339 C13S): T1 sequence (Q96RJ0 1-339 T194A) with C13S, A194T

hTA1 C5S = biological target: T3, hTA1 C5S (Homo sapiens, UniProt Q96RJ0, C5S); assay: GloSensor cAMP accumulation assay, C5S mutant; format: cell-based; settings: for C5S - Normalized Luminescence Counts (N=2): log[Compound], single wells
T3 construct: expressed in transfected cells; host or cells: HEK293T
T3 sequence (Q96RJ0 1-339 C5S): T1 sequence (Q96RJ0 1-339 T194A) with C5S, A194T

[1] = biological target: T4, β2AR-Nterm-hTA1-F112^3.41W (CryoEM Construct) (Homo sapiens, UniProt Q96RJ0, F112W); assay: GloSensor cAMP accumulation assay, cryoEM construct; format: cell-based;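 note: cells transiently co-transfected with the receptor construct and GloSensor cAMP biosensor, luminescence read after 30 min compound exposure at room temperature in the dark as cAMP accumulation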;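 for Normalized Luminescence Counts (N=2): normalized to the maximum response of β-PEA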
T4 construct: FLAG (N); 10xHis (N); TEV protease site (N); expressed in transfected cells; host or cells: HEK293T
T4 sequence (Q96RJ0 with tags, fused parts or gaps F112W): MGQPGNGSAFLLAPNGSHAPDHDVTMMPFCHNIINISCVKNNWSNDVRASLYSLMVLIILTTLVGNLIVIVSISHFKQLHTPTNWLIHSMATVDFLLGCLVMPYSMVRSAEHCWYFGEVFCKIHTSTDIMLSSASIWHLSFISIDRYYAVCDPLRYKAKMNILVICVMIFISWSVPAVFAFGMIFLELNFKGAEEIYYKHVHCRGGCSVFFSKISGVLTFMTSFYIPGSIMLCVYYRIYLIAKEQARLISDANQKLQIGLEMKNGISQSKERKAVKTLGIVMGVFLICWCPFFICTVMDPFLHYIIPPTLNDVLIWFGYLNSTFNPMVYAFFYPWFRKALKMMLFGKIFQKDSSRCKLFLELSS

hTA1 I290Y = biological target: T5, hTA1 I290Y (Homo sapiens, UniProt Q96RJ0, I290Y); assay: GloSensor cAMP accumulation assay, I290Y mutant; format: cell-based; settings: for cAMP accumulation response, normalized (concentration-response source data, single replicate values): hTA1 I290Y (N=3), log[Compound];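 for cAMP accumulation response, normalized (concentration-response source data, single replicate values): normalized to the maximum response of β-PEA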
T5 construct: expressed in transfected cells; host or cells: HEK293T
T5 sequence (Q96RJ0 1-339 I290Y): T1 sequence (Q96RJ0 1-339 T194A) with A194T, I290Y

[2] = read-out: Span ± SEM (Emax normalized to β-PEA)

SMILES: CCC(CC1COC(N)=N1)c1ccccc1 (stereo not shown) [Ro5256390]
- EC50 (hTA1 T194A; EC50, T194A): 34.8 nM
- Emax values, Mean (hTA1 T194A; T149A (so in the source), single experiments (3 replicates each), β-PEA = 100): 128.602 and 110.169 and 108.613
- reduction in potency vs wild type (hTA1 T194A; T194A): over 5 fold
- EC50 (hTA1 T194A; pEC50 values, Mean, T149A (so in the source), single experiments (3 replicates each)): 34.8 nM and 27.7 nM and 14.2 nM
- EC50 (hTA1 T194A; pEC50 ± SEM, T194A): 24 nM
- Emax (hTA1 T194A; [2]): 116 ± 9.22%
- ΔpEC50 values (each mutant value - WT average) (hTA1 C13S; C13S): -0.1093 and -0.3651
- Emax values (hTA1 C13S; C13S, Mean of fit per experiment): 104.119
- EC50 (hTA1 C13S; EC50, C13S, n=2): 9.21 nM
- C13S - Normalized Luminescence Counts (N=2) (hTA1 C13S; M = -5): 108.406 and 95.388 and 120.776 and 112.887 and 109.603 and 114.083
- C13S - Normalized Luminescence Counts (N=2) (hTA1 C13S; M = -5.522): 112.25 and 104.067 and 102.43 and 107.496 and 95.9649 and 109.96
- C13S - Normalized Luminescence Counts (N=2) (hTA1 C13S; M = -6): 90.5159 and 87.1282 and 84.9205 and 101.909 and 92.8231 and 104.73
- C13S - Normalized Luminescence Counts (N=2) (hTA1 C13S; M = -6.522): 96.2254 and 77.4601 and 94.8551 and 102.052 and 85.8613 and 107.282
- EC50 (hTA1 C13S; pEC50 values, Mean, hTA1 C13S, mean of 3 replicates, one line per independent experiment): 6.86 nM and 12.4 nM
- Emax (hTA1 C13S; read-out: Emax values, C13S, Mean of fit per experiment): 96.6%
- Emax (hTA1 C13S; read-out: Span ± SEM (Emax normalized to β-PEA), C13S, n=2): 100 ± 3.73%
- EC50 (hTA1 C5S; EC50, C5S, n=2): 9.93 nM
- Emax values, Mean (hTA1 C5S; hTA1 C5S, β-PEA = 100, mean of 3 replicates, one line per independent experiment): 93.1178
- C5S - Normalized Luminescence Counts (N=2) (hTA1 C5S; M = -5): 103.833 and 96.8115 and 93.515 and 109.052 and 73.4937 and 115.059
- C5S - Normalized Luminescence Counts (N=2) (hTA1 C5S; M = -5.522): 100.921 and 96.3599 and 95.6826 and 93.2407 and 55.8872 and 98.4881
- C5S - Normalized Luminescence Counts (N=2) (hTA1 C5S; M = -6): 105.12 and 94.0343 and 79.8326 and 75.5651 and 84.541 and 101.802
- C5S - Normalized Luminescence Counts (N=2) (hTA1 C5S; M = -6.522): 95.389 and 104.217 and 100.289 and 100.214 and 115.957 and 88.6146
- C5S - Normalized Luminescence Counts (N=2) (hTA1 C5S; M = -7): 82.6549 and 83.4903 and 89.3381 and 93.6549 and 93.9311 and 89.0289
- C5S - Normalized Luminescence Counts (N=2) (hTA1 C5S; M = -7.522): 62.4022 and 62.4925 and 74.2106 and 83.9196 and 70.5248 and 74.2532
- C5S - Normalized Luminescence Counts (N=2) (hTA1 C5S; M = -8): 36.7307 and 40.4787 and 36.4823 and 59.3395 and 54.6444 and 53.6087
- C5S - Normalized Luminescence Counts (N=2) (hTA1 C5S; M = -9): 8.372 and 7.4241 and 6.656 and 9.834 and 7.901 and 11.353
- EC50 (hTA1 C5S; pEC50 values, Mean, hTA1 C5S, mean of 3 replicates, one line per independent experiment): 15.2 nM and 6.48 nM
- EC50 (hTA1 C5S; pEC50 ± SEM, C5S, n=2): 10 nM
- Emax (hTA1 C5S; read-out: Emax values, Mean, hTA1 C5S, β-PEA = 100, mean of 3 replicates, one line per independent experiment): 97.6%
- Emax (hTA1 C5S; read-out: Span ± SEM (Emax normalized to β-PEA), C5S, n=2): 95.4 ± 2.26%
- ΔpEC50 values (each mutant value - WT average), Mean ([1]; Cryo EM Construct minus WT average): 0.183 and 0.4564
- Normalized Luminescence Counts (N=2) ([1]; CryoEM Construct, log[Compound], M = -5, single replicates): 109.262 and 115.846 and 129.746 and 127.392
- EC50 ([1]; EC50, CryoEM Construct, n=2): 2.47 nM
- EC50 ([1]; pEC50 values, Mean, Cryo EM Construct, mean of each independent experiment (3 replicates)): 3.5 nM and 1.87 nM
- Emax [1, 2]: 102 ± 2.88%
- EC50 (hTA1 I290Y; EC50, I290Y): 3.79 nM
- Emax values, Mean (hTA1 I290Y; I290Y, single experiments (3 replicates each), β-PEA = 100): 89.4977 and 95.7835 and 67.042
- cAMP accumulation response, normalized (concentration-response source data, single replicate values) (hTA1 I290Y; M = -5): 116.004 and 90.4575 and 99.9991 and 95.6306 and 94.8977 and 106.257 and 79.386 and 92.9217 and 71.4902
- cAMP accumulation response, normalized (concentration-response source data, single replicate values) (hTA1 I290Y; M = -5.522): 112.926 and 87.6874 and 89.8419 and 104.792 and 95.2641 and 96.3635 and 62.4664 and 47.8027 and 61.3384
- cAMP accumulation response, normalized (concentration-response source data, single replicate values) (hTA1 I290Y; M = -6): 83.3783 and 72.6056 and 91.3809 and 91.5998 and 83.1717 and 95.997 and 59.0825 and 62.4664 and 68.1063
- cAMP accumulation response, normalized (concentration-response source data, single replicate values) (hTA1 I290Y; M = -6.522): 92.9198 and 66.4498 and 97.2289 and 82.4388 and 92.3327 and 95.997 and 63.5944 and 55.6986 and 61.3384
- cAMP accumulation response, normalized (concentration-response source data, single replicate values) (hTA1 I290Y; M = -7): 110.156 and 60.6017 and 92.3043 and 89.4012 and 82.4388 and 95.997 and 47.8027 and 61.3384 and 55.6986
- cAMP accumulation response, normalized (concentration-response source data, single replicate values) (hTA1 I290Y; M = -7.522): 92.6121 and 50.1368 and 96.6133 and 79.5073 and 85.3703 and 95.2641 and 50.0587 and 56.8265 and 52.3146
- cAMP accumulation response, normalized (concentration-response source data, single replicate values) (hTA1 I290Y; M = -8): 93.8432 (2×) and 82.1471 and 71.4457 and 85.3703 and 69.6135 and 30.8831 (2×) and 25.2433
- cAMP accumulation response, normalized (concentration-response source data, single replicate values) (hTA1 I290Y; M = -8.522): 58.1394 and 51.6758 and 54.7537 and 45.0622 and 47.6273 and 45.4287 and 15.0915 and 9.4516 and 13.9635
- cAMP accumulation response, normalized (concentration-response source data, single replicate values) (hTA1 I290Y; M = -9): 42.442 and 23.359 and 39.3641 and 21.9767 and 28.939 and 28.2061 and 3.812 and 2.684 and 9.4516
- cAMP accumulation response, normalized (concentration-response source data, single replicate values) (hTA1 I290Y; M = -9.522): 12.5863 and 7.046 and 12.2785 and 10.9836 and 8.785 and 11.7164 and -2.956 and -1.828 and 0.4278
- cAMP accumulation response, normalized (concentration-response source data, single replicate values) (hTA1 I290Y; M = -10): 11.6629 and 9.816 and 11.9707 and -2.575 and -0.376 and 1.456 and 0.4278 and -0.7002 and -1.828
- cAMP accumulation response, normalized (concentration-response source data, single replicate values) (hTA1 I290Y; M = -10.522): 3.045
- EC50 (hTA1 I290Y; pEC50 values, Mean, I290Y, single experiments (3 replicates each)): 1.77 nM and 2.74 nM and 11.3 nM
- EC50 (hTA1 I290Y; pEC50 ± SEM, I290Y): 3.8 nM
- Emax (hTA1 I290Y; [2]): 84.1 ± 8.72%

From PMC10762035, “Molecular basis of human trace amine-associated receptor 1 activation” (Nature Communications, 2024)
